Series [1] can be described thus: Half life in Dutch Belted rabbit retina at 30 uM, IVT measured after 24 to 336 hrs by LC-MS/MS analysis. It counts as ADME, tissue-based, Oryctolagus cuniculus. Conditions: topical or ocular, time 24-336 hrs.
Series [2] deals with Histone deacetylase 2 (Homo sapiens, UniProt Q92769). Description: Light-dependent inhibition of recombinant full length human HDAC2 expressed in baculovirus infected Sf9 insect cells preincubated for 1 hr in presence of LED light irradiation followed by substrate addition and measured for 30 mins by fluorescence method.
Histone deacetylase 2, sequence (Q92769 whole entry): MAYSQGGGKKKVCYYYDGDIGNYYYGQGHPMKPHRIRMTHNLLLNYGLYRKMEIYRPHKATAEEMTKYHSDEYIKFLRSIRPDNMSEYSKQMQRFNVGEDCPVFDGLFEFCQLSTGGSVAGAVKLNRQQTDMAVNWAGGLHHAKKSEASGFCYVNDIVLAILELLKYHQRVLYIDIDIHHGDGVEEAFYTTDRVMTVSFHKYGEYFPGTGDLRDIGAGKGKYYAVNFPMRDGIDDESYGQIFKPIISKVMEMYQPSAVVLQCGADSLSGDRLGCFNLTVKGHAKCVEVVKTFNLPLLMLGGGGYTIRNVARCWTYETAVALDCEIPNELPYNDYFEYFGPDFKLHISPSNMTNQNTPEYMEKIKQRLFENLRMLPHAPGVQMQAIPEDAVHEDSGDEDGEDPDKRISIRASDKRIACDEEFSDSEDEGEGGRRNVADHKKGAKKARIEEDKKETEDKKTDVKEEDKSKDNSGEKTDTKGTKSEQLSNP
Series [3] in a line: Thermal relaxation half life in PBS buffer. The class given is physicochemical.
Series [4] relates to Escherichia coli. Put plainly: Antibacterial activity against Quinolone-sensitive Escherichia coli CS1562 (tolC6:tn10) measured every 10 min for 12 hrs by broth dilution method. It counts as functional. In general terms: In broth dilution the organism is exposed to a series of concentrations in liquid medium.
The test system of series [5] is Escherichia coli. Description: Antibacterial activity against Quinolone-sensitive Escherichia coli CS1562 (tolC6:tn10) using irradiated compound measured every 10 min for 12 hrs by broth dilution method. The class given is functional. As to conditions: light or radiation study.
A short description of series [6]: Half life of compound in water at 21x10^-6 M. As to conditions: dose 21 10^-6M. The class given is physicochemical.

The structures appear in SMILES notation. Values after ≈ are worked out from the molar mass of the structure shown.

For orientation: half-life means the time needed for the level to fall by half in the phase considered. A higher half-life goes with slow decline. The term IC50 denotes the concentration that gives 50% inhibition. For orientation: MIC means the smallest concentration in the dilution series that meets the test's criterion for growth inhibition. Higher therefore signals weaker potency.

`CCN(Cc1ccccc1)c1ccc(/N=N/c2ccc(NC(=O)C[N+](CC)(CC)CC)cc2)cc1` [KIO-301] showed a half-life at 30 µM in series [1] of 24 days.
Turning to `CN(C)c1ccc(/N=N\c2ccc(C(=O)Nc3cc(-c4cccs4)ccc3O)cc2)cc1`, in series [2], the IC50 is less than 100 nM. Moreover, in series [3], the t1/2 was 56 microsec.
As to `CCn1cc(C(=O)O)c(=O)c2ccc(/N=N\c3ccc(OC)c(C)c3)cc21`, the minimal inhibitory concentration (MIC) was not below 64 µg/mL in series [4] and 16 µg/mL (≈ 43.8 µM) in series [5]. This compound showed a half-life at 21 µM in series [6] of 0.0833 days.

Source of the values: ChEMBL document CHEMBL4665681, “On the Promise of Photopharmacology Using Photoswitches: A Medicinal Chemist's Perspective” (J Med Chem, 2020).
